Test results from DBAASP.
In brackets after ≈: the same amount, converted by molar mass. Each block holds one molecule with its values, some of them ahead of it.

How the values were obtained:
Assay in all cases: ≥ marks a high value that may be exact or a test limit, other limits are often not marked, values filed in µg/mL are converted to µM
[1] = test system: Pseudomonas aeruginosa PAK
Staphylococcus aureus = test system: Staphylococcus aureus
[2] = test system: Streptococcus gordonii Challis DL1
[3] = test system: Streptococcus mitis ATCC 903
[4] = test system: Streptococcus mutans UA159
[5] = test system: Streptococcus sanguinis NY101
[6] = test system: Acholeplasma laidlawii A-EF22
[7] = test system: Aeromonas salmonicida NCIMB 1102
[8] = test system: Bacillus subtilis IAM 1026
[9] = test system: Escherichia coli JCM 1649
[10] = test system: Photobacterium damselae subsp. piscicida Sp 9587
Salmonella typhimurium = test system: Salmonella typhimurium
[11] = test system: Shewanella putrefaciens IAM 1509
[12] = test system: Staphylococcus aureus IAM 1011
[13] = test system: Vibrio anguillarum NCIMB 829
[14] = test system: Vibrio parahaemolyticus Vp+1
[15] = test system: Escherichia coli ATCC 25922
[16] = test system: Staphylococcus aureus FDA 209P
Escherichia coli JM109 = test system: Escherichia coli JM109
Pseudomonas aeruginosa = test system: Pseudomonas aeruginosa
[17] = test system: Staphylococcus aureus ATCC 6538P
[18] = test system: Bacillus anthracis Sterne 34F2
[19] = test system: Bacillus subtilis var. niger ATCC 9372
Escherichia coli K91BK = test system: Escherichia coli K91BK
Escherichia coli U16318 = test system: Escherichia coli U16318
[20] = test system: Staphylococcus aureus B38302

MIC [1]: 24.1 µM (≈ 62.5 µg/mL) | MIC (Staphylococcus aureus): 12.4 µM (≈ 32 µg/mL) | MIC [2]: 12.4 µM (≈ 32 µg/mL) | MIC [3]: 12.4 µM (≈ 32 µg/mL) | MIC [4]: 3.09 µM (≈ 8 µg/mL) | MIC [5]: 12.4 µM (≈ 32 µg/mL)
Compound: CC[C@H](C)[C@H](NC(=O)[C@H](Cc1ccccc1)NC(=O)CNC(=O)CNC(=O)CNC(=O)[C@H](Cc1ccccc1)NC(=O)[C@H](Cc1c[nH]c2ccccc12)NC(=O)[C@H](CCCN=C(N)N)NC(=O)[C@H](Cc1c[nH]c2ccccc12)NC(=O)[C@H](CCCN=C(N)N)NC(=O)[C@H](Cc1c[nH]c2ccccc12)NC(=O)[C@@H](N)CCCN=C(N)N)C(=O)N[C@@H](CCCCN)C(=O)N[C@@H](Cc1cnc[nH]1)C(=O)N[C@@H](Cc1ccccc1)C(=O)N[C@H](C(=O)N[C@@H](Cc1cnc[nH]1)C(=O)N[C@@H](CCCN=C(N)N)C(=O)N[C@@H](Cc1ccccc1)C(N)=O)[C@@H](C)CC [RWRWRWFGGGFIKHFIHRF]

MIC [6]: ≥ 100 µM
Compound: CC(C)C[C@H](NC(=O)[C@H](CC(C)C)NC(=O)[C@H](CCCCN)NC(=O)[C@H](CC(C)C)NC(=O)[C@H](CC(C)C)NC(=O)[C@H](CC(C)C)NC(=O)[C@@H](N)CCCCN)C(=O)N[C@@H](CCCCN)C(=O)O [KLLLKLLK]

MIC [7]: ≥ 33.7 µM | MIC [8]: 4.21 µM (≈ 6.25 µg/mL) | MIC [9]: ≥ 33.7 µM | MIC [10]: 8.43 µM (≈ 12.5 µg/mL) | MIC (Salmonella typhimurium): ≥ 33.7 µM | MIC [11]: 4.21 µM (≈ 6.25 µg/mL) | MIC [12]: 2.11 µM (≈ 3.13 µg/mL) | MIC [13]: 8.43 µM (≈ 12.5 µg/mL)
Compound: CC[C@H](C)[C@H](NC(=O)CNC(=O)CNC(=O)[C@@H](NC(=O)[C@@H](N)Cc1ccccc1)[C@@H](C)CC)C(=O)N[C@H](C(=O)N[C@@H](CO)C(=O)N[C@@H](Cc1ccccc1)C(=O)N[C@H](C(=O)N[C@@H](CCCCN)C(=O)N[C@@H](CCCCN)C(=O)N[C@@H](CC(C)C)C(=O)N[C@@H](Cc1ccccc1)C(=O)O)[C@@H](C)CC)[C@@H](C)CC [FIGGIISFIKKLF]
MIC [14]: 16.9 µM (≈ 25 µg/mL)

MIC [15]: 1.7 µM (≈ 8.13 µg/mL) | MIC [16]: 3 µM (≈ 14.3 µg/mL)
Compound: CC[C@H](C)[C@H](NC(=O)CNC(=O)[C@H](CCCCN)NC(=O)[C@@H](NC(=O)CNC(=O)[C@H](CCCCN)NC(=O)[C@@H](NC(=O)[C@@H](NC(=O)[C@H](CCSC)NC(=O)[C@H](CC(N)=O)NC(=O)[C@H](CCCCN)NC(=O)[C@@H](NC(=O)CNC(=O)[C@H](CCCCN)NC(=O)CNC(=O)[C@H](C)NC(=O)[C@H](Cc1ccccc1)NC(=O)[C@H](CCCCN)NC(=O)[C@H](CO)NC(=O)[C@H](Cc1ccccc1)NC(=O)[C@H](CC(C)C)NC(=O)CN)[C@@H](C)CC)[C@@H](C)CC)[C@@H](C)CC)[C@@H](C)CC)C(=O)NCC(=O)N[C@@H](CCCCN)C(=O)N[C@@H](CCC(=O)O)C(=O)N[C@H](C(=O)NCC(=O)N[C@@H](CCSC)C(=O)N[C@@H](CC(=O)O)C(=O)N[C@H](C(=O)N[C@H](C(=O)N[C@@H](CCCN=C(N)N)C(=O)N[C@H](C(=O)NCC(=O)N[C@H](C(=O)N[C@@H](CC(=O)O)C(=O)N[C@H](C(=O)N[C@@H](C)C(=O)NCC(=O)N[C@H]1CSSC[C@@H](C(=O)O)NC(=O)[C@H](CCC(=O)O)NC(=O)CNC(=O)[C@H](CCCCN)NC(=O)[C@H]([C@@H](C)CC)NC(=O)[C@H](CCCCN)NC1=O)C(C)C)[C@@H](C)CC)[C@@H](C)O)[C@@H](C)CC)C(C)C)C(C)C [GLFSKFAGKGIKNMIIKGIKGIGKEVGMDVIRTGIDVAGCKIKGEC]

MIC (Escherichia coli JM109): 1.85 µM (≈ 2 µg/mL) | MIC (Pseudomonas aeruginosa): 2.77 µM (≈ 3 µg/mL) | MIC [17]: 1.85 µM (≈ 2 µg/mL) | MIC (Staphylococcus aureus): 29.6 µM (≈ 32 µg/mL)
Compound: CC[C@H](C)[C@H](NC(=O)[C@H](C)NC(=O)[C@H](CC(C)C)NC(=O)[C@H](CC(C)C)NC(=O)[C@H](CC(C)C)NC(=O)[C@H](C)N)C(=O)N[C@@H](CCCN=C(N)N)C(=O)N[C@@H](CCCN=C(N)N)C(=O)N[C@@H](CCCN=C(N)N)C(N)=O [ALLLAIRRR]

MIC (Escherichia coli JM109): ≥ 36.8 µM | MIC [17]: 7.67 µM (≈ 9.99 µg/mL) | MIC (Staphylococcus aureus): 49.1 µM (≈ 64 µg/mL)
Compound: CC[C@H](C)[C@H](NC(=O)[C@H](C)NC(=O)[C@H](CC(C)C)NC(=O)[C@H](CC(C)C)NC(=O)[C@H](Cc1cnc[nH]1)NC(=O)[C@H](C)NC(=O)[C@H](C)NC(=O)[C@H](CC(C)C)NC(=O)[C@@H](N)CC(C)C)C(=O)NCC(=O)N[C@@H](CCCN=C(N)N)C(=O)N[C@@H](CCCN=C(N)N)C(N)=O [LLAAHLLAIGRR]

MIC [15]: 3.2 µM (≈ 15.2 µg/mL) | MIC [16]: 4.9 µM (≈ 23.3 µg/mL)
Compound: CC[C@H](C)[C@H](NC(=O)CNC(=O)[C@H](CCCCN)NC(=O)[C@@H](NC(=O)CNC(=O)[C@H](CCCCN)NC(=O)[C@@H](NC(=O)[C@@H](NC(=O)[C@H](CC(C)C)NC(=O)[C@H](CC(=O)O)NC(=O)[C@H](CCCCN)NC(=O)[C@@H](NC(=O)CNC(=O)[C@H](CCCCN)NC(=O)CNC(=O)[C@H](C)NC(=O)[C@H](Cc1ccccc1)NC(=O)[C@H](CCCCN)NC(=O)[C@H](CO)NC(=O)[C@H](Cc1ccccc1)NC(=O)[C@@H](NC(=O)CN)[C@@H](C)CC)[C@@H](C)CC)[C@@H](C)CC)[C@@H](C)CC)C(C)C)C(=O)N[C@@H](C)C(=O)N[C@@H](CCCCN)C(=O)N[C@@H](CCC(=O)O)C(=O)N[C@@H](C)C(=O)NCC(=O)N[C@@H](CCSC)C(=O)N[C@@H](CC(=O)O)C(=O)N[C@H](C(=O)N[C@H](C(=O)N[C@@H](CCCN=C(N)N)C(=O)N[C@H](C(=O)NCC(=O)N[C@H](C(=O)N[C@@H](CC(=O)O)C(=O)N[C@H](C(=O)N[C@@H](C)C(=O)NCC(=O)N[C@H]1CSSC[C@@H](C(=O)O)NC(=O)[C@H](CCC(=O)O)NC(=O)CNC(=O)[C@H](CCCCN)NC(=O)[C@H]([C@@H](C)CC)NC(=O)[C@H](CCCCN)NC1=O)[C@@H](C)CC)[C@@H](C)CC)[C@@H](C)O)[C@@H](C)CC)C(C)C [GIFSKFAGKGIKDLIIKGVKGIAKEAGMDVIRTGIDIAGCKIKGEC]

MIC [1]: 9.6 µM (≈ 32 µg/mL) | MIC (Staphylococcus aureus): 9.6 µM (≈ 32 µg/mL) | MIC [2]: 4.8 µM (≈ 16 µg/mL) | MIC [3]: 9.6 µM (≈ 32 µg/mL) | MIC [4]: 2.4 µM (≈ 8 µg/mL) | MIC [5]: 9.6 µM (≈ 32 µg/mL)
Compound: CC[C@H](C)[C@H](NC(=O)[C@H](Cc1ccccc1)NC(=O)CNC(=O)CNC(=O)[C@H](CO)NC(=O)[C@H](Cc1cnc[nH]1)NC(=O)[C@H](CC(C)C)NC(=O)[C@H](CC(C)C)NC(=O)[C@H](Cc1cnc[nH]1)NC(=O)[C@H](Cc1cnc[nH]1)NC(=O)[C@H](CC(C)C)NC(=O)[C@H](CCCCN)NC(=O)[C@H](CCCCN)NC(=O)[C@H](CC(C)C)NC(=O)[C@H](CC(C)C)NC(=O)[C@H](CCCN=C(N)N)NC(=O)[C@H](CCCN=C(N)N)NC(=O)[C@H](Cc1c[nH]c2ccccc12)NC(=O)[C@@H](N)CCCN=C(N)N)C(=O)N[C@@H](CCCCN)C(=O)N[C@@H](Cc1cnc[nH]1)C(=O)N[C@@H](Cc1ccccc1)C(=O)N[C@H](C(=O)N[C@@H](Cc1cnc[nH]1)C(=O)N[C@@H](CCCN=C(N)N)C(=O)N[C@@H](Cc1ccccc1)C(N)=O)[C@@H](C)CC [RWRRLLKKLHHLLHSGGFIKHFIHRF]

Compound: CC(=O)N[C@@H](C)C(=O)N[C@@H](CC(C)C)C(=O)N[C@@H](Cc1c[nH]c2ccccc12)C(=O)N[C@@H](CCCCN)C(=O)N[C@H](C(=O)N[C@@H](CC(C)C)C(=O)N[C@@H](CC(C)C)C(=O)N[C@@H](CCCCN)C(=O)N[C@@H](CCCCN)C(=O)N[C@H](C(=O)N[C@@H](CC(C)C)C(=O)N[C@@H](CCCCN)C(=O)N[C@@H](C)C(N)=O)C(C)C)[C@@H](C)O [ALWKTLLKKVLKA]
MIC [18]: ≥ 70.7 µM | MIC [19]: 4.42 µM (≈ 6.86 µg/mL) | MIC (Escherichia coli K91BK): ≥ 100 µM | MIC (Escherichia coli U16318): 25 µM (≈ 38.8 µg/mL) | MIC [20]: 25 µM (≈ 38.8 µg/mL)
